Key:
Test in all cases: relative viability (nuclei count vs DMSO), 5 days (fraction); higher = more cells survive
LCLC-97TM1 = tested on: LCLC-97TM1
Method in brief: (§1)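 Relative viability is defined as nuclei in treated wells over nuclei in vehicle wells. Duplicate plates were run and medians reported. Lung cancer cell lines in 1536-well plates were dosed by pin tool one day after seeding, with one drug or with a fixed anchor-drug dose plus five library-drug doses (not always all listed) in √10 steps, and nuclei were counted after 5 days.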

201T = tested on: 201T
Method in brief: as §1

NCI-H1666 = tested on: NCI-H1666
Method in brief: as §1

H3255 = tested on: H3255
Method in brief: as §1

LOU-NH91 = tested on: LOU-NH91
Method in brief: as §1

NCI-H650 = tested on: NCI-H650
Method in brief: as §1

NCI-H2087 = tested on: NCI-H2087
Method in brief: as §1

NCI-H2085 = tested on: NCI-H2085
Method in brief: as §1

NCI-H1437 = tested on: NCI-H1437
Method in brief: as §1

BEN = tested on: BEN
Method in brief: as §1

EPLC-272H = tested on: EPLC-272H
Method in brief: as §1

EKVX = tested on: EKVX
Method in brief: as §1

PC-3 [JPC-3] = tested on: PC-3 [JPC-3]
Method in brief: as §1

NCI-H647 = tested on: NCI-H647
Method in brief: as §1

NCI-H1975 = tested on: NCI-H1975
Method in brief: as §1

LU99A = tested on: LU99A
Method in brief: as §1

COR-L 105 = tested on: COR-L 105
Method in brief: as §1

HCC-44 = tested on: HCC-44
Method in brief: as §1

HCC-827 = tested on: HCC-827
Method in brief: as §1

SW 1573 = tested on: SW 1573
Method in brief: as §1

CC(=O)O[C@@]12CO[C@@H]1C[C@H](O)[C@@]1(C)C(=O)[C@H](O)C3=C(C)[C@@H](OC(=O)[C@H](O)[C@@H](NC(=O)OC(C)(C)C)c4ccccc4)C[C@@](O)([C@@H](OC(=O)c4ccccc4)[C@H]21)C3(C)C [Docetaxel] + CC(C)C[C@H](NC(=O)[C@H](Cc1ccccc1)NC(=O)c1cnccn1)B(O)O [Bortezomib] (partner 0.002 µM)
relative viability (LCLC-97TM1; first compound 0.0002 µM): 0.624 | relative viability (LCLC-97TM1; first compound 0.000632 µM): 0.125 | relative viability (LCLC-97TM1; first compound 0.002 µM): 0.106 | relative viability (LCLC-97TM1; first compound 0.006325 µM): 0.083 | relative viability (LCLC-97TM1; first compound 0.02 µM): 0.051 | relative viability (201T; first compound 0.0002 µM): 1.07 | relative viability (201T; first compound 0.000632 µM): 1.1 | relative viability (201T; first compound 0.002 µM): 1.03 | relative viability (201T; first compound 0.006325 µM): 0.624 | relative viability (201T; first compound 0.02 µM): 0.425 | relative viability (NCI-H1666; first compound 0.0002 µM): 0.582 | relative viability (NCI-H1666; first compound 0.000632 µM): 0.452 | relative viability (NCI-H1666; first compound 0.002 µM): 0.378 | relative viability (NCI-H1666; first compound 0.006325 µM): 0.249 | relative viability (NCI-H1666; first compound 0.02 µM): 0.205 | relative viability (H3255; first compound 0.0002 µM): 0.864 | relative viability (H3255; first compound 0.000632 µM): 0.497 | relative viability (H3255; first compound 0.002 µM): 0.489 | relative viability (H3255; first compound 0.006325 µM): 0.284 | relative viability (H3255; first compound 0.02 µM): 0.272 | relative viability (LOU-NH91; first compound 0.0002 µM): 0.483 | relative viability (LOU-NH91; first compound 0.000632 µM): 0.46 | relative viability (LOU-NH91; first compound 0.002 µM): 0.4 | relative viability (LOU-NH91; first compound 0.006325 µM): 0.337 | relative viability (LOU-NH91; first compound 0.02 µM): 0.345 | relative viability (NCI-H650; first compound 0.0002 µM): 0.636 | relative viability (NCI-H650; first compound 0.000632 µM): 0.425 | relative viability (NCI-H650; first compound 0.002 µM): 0.309 | relative viability (NCI-H650; first compound 0.006325 µM): 0.233 | relative viability (NCI-H650; first compound 0.02 µM): 0.196 | relative viability (NCI-H2087; first compound 0.0002 µM): 0.701 | relative viability (NCI-H2087; first compound 0.000632 µM): 0.665 | relative viability (NCI-H2087; first compound 0.002 µM): 0.28 | relative viability (NCI-H2087; first compound 0.006325 µM): 0.224 | relative viability (NCI-H2087; first compound 0.02 µM): 0.142 | relative viability (NCI-H2085; first compound 0.0002 µM): 0.882 | relative viability (NCI-H2085; first compound 0.000632 µM): 1.06 | relative viability (NCI-H2085; first compound 0.002 µM): 0.718 | relative viability (NCI-H2085; first compound 0.006325 µM): 0.54 | relative viability (NCI-H2085; first compound 0.02 µM): 0.46 | relative viability (NCI-H1437; first compound 0.0002 µM): 0.472 | relative viability (NCI-H1437; first compound 0.000632 µM): 0.322 | relative viability (NCI-H1437; first compound 0.002 µM): 0.215 | relative viability (NCI-H1437; first compound 0.006325 µM): 0.145 | relative viability (NCI-H1437; first compound 0.02 µM): 0.104 | relative viability (BEN; first compound 0.0002 µM): 0.612 | relative viability (BEN; first compound 0.000632 µM): 0.644 | relative viability (BEN; first compound 0.002 µM): 0.341 | relative viability (BEN; first compound 0.006325 µM): 0.263 | relative viability (BEN; first compound 0.02 µM): 0.164 | relative viability (EPLC-272H; first compound 0.0002 µM): 0.761 | relative viability (EPLC-272H; first compound 0.000632 µM): 0.506 | relative viability (EPLC-272H; first compound 0.002 µM): 0.209 | relative viability (EPLC-272H; first compound 0.006325 µM): 0.168 | relative viability (EPLC-272H; first compound 0.02 µM): 0.0779 | relative viability (EKVX; first compound 0.0002 µM): 1.05 | relative viability (EKVX; first compound 0.000632 µM): 0.718 | relative viability (EKVX; first compound 0.002 µM): 0.429 | relative viability (EKVX; first compound 0.006325 µM): 0.269 | relative viability (EKVX; first compound 0.02 µM): 0.152 | relative viability (PC-3 [JPC-3]; first compound 0.0002 µM): 0.794 | relative viability (PC-3 [JPC-3]; first compound 0.000632 µM): 0.959 | relative viability (PC-3 [JPC-3]; first compound 0.002 µM): 0.735 | relative viability (PC-3 [JPC-3]; first compound 0.006325 µM): 0.263 | relative viability (PC-3 [JPC-3]; first compound 0.02 µM): 0.193 | relative viability (NCI-H647; first compound 0.0002 µM): 0.762 | relative viability (NCI-H647; first compound 0.000632 µM): 0.23 | relative viability (NCI-H647; first compound 0.002 µM): 0.113 | relative viability (NCI-H647; first compound 0.006325 µM): 0.123 | relative viability (NCI-H647; first compound 0.02 µM): 0.0811 | relative viability (NCI-H1975; first compound 0.0002 µM): 0.366 | relative viability (NCI-H1975; first compound 0.000632 µM): 0.246 | relative viability (NCI-H1975; first compound 0.002 µM): 0.166 | relative viability (NCI-H1975; first compound 0.006325 µM): 0.15 | relative viability (NCI-H1975; first compound 0.02 µM): 0.141 | relative viability (LU99A; first compound 0.0002 µM): 1.01 | relative viability (LU99A; first compound 0.000632 µM): 0.637 | relative viability (LU99A; first compound 0.002 µM): 0.545 | relative viability (LU99A; first compound 0.006325 µM): 0.282 | relative viability (LU99A; first compound 0.02 µM): 0.221 | relative viability (COR-L 105; first compound 0.0002 µM): 0.734 | relative viability (COR-L 105; first compound 0.000632 µM): 0.595 | relative viability (COR-L 105; first compound 0.002 µM): 0.423 | relative viability (COR-L 105; first compound 0.006325 µM): 0.304 | relative viability (COR-L 105; first compound 0.02 µM): 0.229 | relative viability (HCC-44; first compound 0.0002 µM): 0.904 | relative viability (HCC-44; first compound 0.000632 µM): 0.905 | relative viability (HCC-44; first compound 0.002 µM): 0.57 | relative viability (HCC-44; first compound 0.006325 µM): 0.151 | relative viability (HCC-44; first compound 0.02 µM): 0.149 | relative viability (HCC-827; first compound 0.0002 µM): 0.891 | relative viability (HCC-827; first compound 0.000632 µM): 0.962 | relative viability (HCC-827; first compound 0.002 µM): 1 | relative viability (HCC-827; first compound 0.006325 µM): 0.562 | relative viability (HCC-827; first compound 0.02 µM): 0.328 | relative viability (SW 1573; first compound 0.0002 µM): 1.05 | relative viability (SW 1573; first compound 0.000632 µM): 0.364 | relative viability (SW 1573; first compound 0.002 µM): 0.265 | relative viability (SW 1573; first compound 0.006325 µM): 0.195 | relative viability (SW 1573; first compound 0.02 µM): 0.201

Source: the supplement of paper PMC10307832
